Tests used:
[1] = test system: activated Cas-1 in primary peritoneal macrophages; assay: High-content screening / fluorescence imaging for caspase-1 modulators in primary peritoneal macrophages; assay type: cell-based, mouse; details: MCC950 1 μM with Nig 10 μM simultaneously, after LPS; FPy1 5 μM
Excerpt: The efficient and rapid discovery of Cas-1 modulators is of significant importance considering the therapeutic potential of Cas-1 in various diseases.[39,40] Therefore, we employed FPy1 to construct a high-content screening system aimed at identifying Cas-1 modulators. The level of activated Cas-1 in cells is influenced by multiple factors. To reduce the impact of factors that affect Cas-1 activation in cells, we utilized the NLRP3 inflammasome-mediated Cas-1 activation model, administering the drug during the second stage where the zymogen was converted into activated Cas-1. MCC950, a selective NLRP3 inflammasome inhibitor that could suppress Cas-1 activation, was selected as the positive drug.[41] […] To validate the efficacy of the Cas-1 modulator screening system (Fig. 6a), we first observed the fluorescence images of PMs stained with FPy1 (5 μM) in the control group, model group, and positive drug group. […] Subsequently, the impact of 25 natural products (10 μM) on activated Cas-1 were studied using high-content analysis (Fig. S20). […] To determine whether deoxyshikonin directly binds to Cas-1 and inhibits its activity, we conducted fluorescence detection following co-incubation of deoxyshikonin, FPy1 and Cas-1. […]
Harvested rat discs were fixed in 4 % buffered paraformaldehyde for 24 hours, decalcified in 10 % ethylenediaminetetraacetic acid (EDTA, Solarbio, E8030) solution for 1 month, embedded in paraffin, and sectioned at a thickness of 5 μm. […] Stained sections were evaluated by three independent raters, blinded to the research protocol, and measurements were averaged for statistical analysis. […]
In vivo fluorescence imaging of intervertebral disc degeneration
Twelve rats were modeled with needle puncture-induced intervertebral disc degeneration at the Co5/6, Co6/7 and Co 7/8 levels. […] In vivo fluorescence images were acquired using an in vivo Imaging System (PerkinElmer). […]
In vivo fluorescence imaging of osteoarthritis […]

caspase-1 [2] = target: T1, caspase-1 (Homo sapiens, UniProt P29466); assay: Sensitivity of probes for caspase-1 (fluorescence at 585 nm); assay type: biochemical; details: probe 5 μM
T1 sequence (P29466 120-297 limits assumed): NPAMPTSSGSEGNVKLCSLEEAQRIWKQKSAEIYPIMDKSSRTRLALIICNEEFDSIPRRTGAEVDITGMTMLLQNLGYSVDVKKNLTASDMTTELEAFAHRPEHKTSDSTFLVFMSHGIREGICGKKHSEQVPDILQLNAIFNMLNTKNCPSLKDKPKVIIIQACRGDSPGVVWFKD
T1 sequence (P29466 317-404 limits assumed): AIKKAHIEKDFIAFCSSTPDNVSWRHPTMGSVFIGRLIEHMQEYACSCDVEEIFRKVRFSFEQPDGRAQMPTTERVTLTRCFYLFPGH
Experimental: The spectral and chemical properties of all probes were then evaluated. Upon interaction with Cas-1, the specific peptide of the probes is cleaved, leading to the disruption of the FRET process in the system and the recovery of donor fluorescence (Fig. 2a). Prior to fluorescence detection, the UV-vis absorption spectra of the probes were acquired. […] Subsequently, the sensitivity of the probes towards Cas-1 was measured in HEPES buffer (50 mM HEPES, 50 mM NaCl, 0.1% chaps, 5% glycerol, 10 mM DTT, 10 mM EDTA). […] The response differences among the probes were more intuitively observed by analyzing the standard curves of fluorescence intensity at 585 nm against the concentration of Cas-1 (Fig. 2b). […] The reaction kinetics of the probes were also measured by monitoring the fluorescence intensity of FPy1, YPy1 and WPy1 (0.5–4 μM) following incubation with Cas-1 (2 U mL^−1) (Fig. S3a–f). […] The reaction time of the probes was also investigated by monitoring the fluorescence spectra of the probes (5 μM) incubated with Cas-1 (2 U mL^−1) at various time intervals (Fig. S4a–c). […] Finally, the selectivity of the probes was evaluated. A series of potential biologically relevant interferents were selected, and the results illustrated that these interferents had no effect on the probes (Fig. S5a–c). Further selectivity validation was performed through incubating with caspase-3 (1 μg mL^−1), caspase-4 (2 U mL^−1), caspase-8 (1 μg mL^−1) from the caspase protease family. […] Therefore, FPy1 appeared to be the prime candidate for Cas-1 imaging applications. […]
(§1) Cell culture plates were sourced from Wuxi NEST Biotechnology. Recombinant human caspase-1, caspase-3, caspase-4, and caspase-8 were obtained from Abcam and MCE (Shanghai, China). Anti-cleaved caspase-1 antibody, anti-GAPDH antibody, and goat anti-Rabbit/anti-mouse lgG/HRP were purchased from CST (USA) and Beyotime […]
(§2) (Shanghai, China). […]
(§3) Medical College (ethical approval number ZJCLA-IACUC-20011003).
(§4) (also on this page, place not known: Wang,*f, Wang*abg Supplementary Information (SI) for Chemical Science. This journal is © The Royal Society of Chemistry 2025)
(§5) (1 picture or pasted object on this page, not shown here) […]
mixture was stirred for 3 h. DCM was removed under vacuum, and the residue was purified by silica gel column chromatography (DCM/MeOH, 180/1) to afford WPy1 as a dark purple solid (21 mg, 6 % yield). HRMS (ESI+): calcd […]
Analysis of probe purity by LC-MSD
Prepare dilute solutions of FPy1, YPy1 and WPy1 using chromatographic-grade acetonitrile and transfer them to sample vials. Begin with an initial mobile phase consisting of 20% acetonitrile (0.05 % formic acid) and 80% H2O (0.05 % formic acid). Over the course of 30 minutes, implement a gradient change to a mobile phase of 90% acetonitrile (0.05 % formic acid) and 10% H2O (0.05 % FA). Under the elution conditions, LC-MSD was performed on the above probe solutions and blank solvent acetonitrile.
Sensitivity of probes for caspase-1
(§6) To investigate the sensitivity of the probes for caspase-1, varying concentration of caspase-1 (0, 0.2, 0.4, 0.6, 0.8, 1.0, 1.25, 1.5, 1.75, 2, 2.5, 3 U/mL) were incubated with FPy1 (5 μM), YPy1 (5 μM) and WPy1 (5 μM) respectively in caspase-1 assay buffer (50 mM HEPES, 50 mM NaCl, 0.1 % chaps, 5 % glycerol, 10 mM DTT, 10 mM EDTA) at 37 °C for 2 hours. Fluorescence spectra were recorded using Hitachi F-2700 spectrophotometer with an excitation at 510 nm (Photomultiplier voltage 700 V; Slit widths ex: 10 nm and em =5.0 nm). The fluorescence intensity of FPy1, YPy1 and WPy1 at 585 nm were plotted against the concentration of caspase-1, and a linear regression fitted from the corresponding concentration of caspase-1, and linear regression was applied to determine the slope k. The limit of detection (LoD) was calculated from 3σ/k, in which σ represents the standard deviation of 15 blank measurements.
Various concentrations of FPy1, YPy1 and WPy1 (0.5, 1, 2, 4 μM) in 100 μL enzyme assay buffer (50 mM HEPES, 50 […]

caspase-1 [3] = target: T1, caspase-1; assay: Reaction time of probes for caspase-1; assay type: biochemical; details: probe 5 μM, Cas-1 2 U/mL, assay buffer, 37 °C
Experimental: The spectral and chemical properties of all probes were then evaluated. Upon interaction with Cas-1, the specific peptide of the probes is cleaved, leading to the disruption of the FRET process in the system and the recovery of donor fluorescence (Fig. 2a). Prior to fluorescence detection, the UV-vis absorption spectra of the probes were acquired. […] Subsequently, the sensitivity of the probes towards Cas-1 was measured in HEPES buffer (50 mM HEPES, 50 mM NaCl, 0.1% chaps, 5% glycerol, 10 mM DTT, 10 mM EDTA). […] The response differences among the probes were more intuitively observed by analyzing the standard curves of fluorescence intensity at 585 nm against the concentration of Cas-1 (Fig. 2b). […] The reaction kinetics of the probes were also measured by monitoring the fluorescence intensity of FPy1, YPy1 and WPy1 (0.5–4 μM) following incubation with Cas-1 (2 U mL^−1) (Fig. S3a–f). […] The reaction time of the probes was also investigated by monitoring the fluorescence spectra of the probes (5 μM) incubated with Cas-1 (2 U mL^−1) at various time intervals (Fig. S4a–c). […] Finally, the selectivity of the probes was evaluated. […]
as §6, with “measurements. […]” for “measurements.”

caspase-8 = assay: Selectivity of probes: caspase-8; assay type: biochemical, human; details: caspase-8 1 μg/mL, 37 °C, 2 h, λex 510 nm, λem 585 nm
Excerpt: as §1, with “The resin used for SPPS was purchased from GL Biochem (Shanghai, China). Lipopolysaccharide (LPS, L2630), Nigericin and ATP (11140965001) were purchased from Merck (Shanghai, China) and Invitrogen (Shanghai, China), respectively. Cell” for “Cell”
as §2, §3, §4, §5
mixture was stirred for 3 h. […]
as §6, with “measurements. […]” for “measurements.”
The fluorescence intensity at 585 nm was measured on a Tecan Infinite M1000 Multi-function microplate reader (λex = 510 nm) at 37 °C every 2 minutes. The K M value of probes was determined from the Lineweaver-Burk plot. […]

## CC(C)(O)c1coc(S(=O)(=O)NC(=O)Nc2c3c(cc4c2CCC4)CCC3)c1 [MCC950, reference compound]
[1]
  fluorescence intensity of FPy1, positive drug group vs model group: significantly lower than in the model group

## –WEHDG– [WPy1, caspase-1-responsive FRET probe with recognition peptide –WEHDG–; RhoB donor, hNR quencher]
caspase-1 [2]; compared with FPy1 and YPy1
  maximum fluorescence intensity at 585 nm: significantly lower than that of FPy1 and YPy1
caspase-1 [2]; compared with other probes
  baseline fluorescence intensity at 585 nm: lower baseline fluorescence intensity
caspase-1 [2]; fluorescence intensity at 585 nm vs Cas-1 concentration, 37 °C, 2 h
  linear fitting range of Cas-1 concentration: 0–1.25 U mL^−1
caspase-1 [2]; Cas-1 0–3 U/mL, assay buffer 50 mM HEPES, 50 mM NaCl, 0.1% chaps, 5% glycerol, 10 mM DTT, 10 mM EDTA, 37 °C, 2 h, λex 510 nm
  enhancement of fluorescence intensity at 585 nm: about 11.5 fold
caspase-1 [3]
  time to maximum fluorescence intensity at 585 nm (reaction time): 60 min
caspase-8
  fluorescence response to caspase-8: a certain level of response to caspase-8
